Oligonucleotides are written 5' to 3', each unit as a sugar letter and its base; * is a phosphorothioate linkage, no mark a phosphodiester; rarer units and linkages stand in square brackets, end groups in braces. Plain capitals give the bases only. d = 2'-deoxy (DNA); r = 2'-OH (RNA)
Each substance was assayed against UBE2B (assay: reporter assay of Huesken 2005). Settings: siRNA.
Note: test concentration or dose not given here.

Row | Substance | normalised inhibition (eCFP-eYFP dual reporter)
1 | sense rCrUrGrArArGrArArUrArUrCrCrArArArUrArAdTdT / antisense rUrUrArUrUrUrGrGrArUrArUrUrCrUrUrCrArGdAdA | 80.1%
2 | sense rCrUrUrCrArGrArArUrCrGrArUrGrGrArGrUrCdTdT / antisense rGrArCrUrCrCrArUrCrGrArUrUrCrUrGrArArGdGdA | 72.2%
3 | sense rGrArArCrCrGrArArUrCrCrUrArArCrArGrUrCdTdT / antisense rGrArCrUrGrUrUrArGrGrArUrUrCrGrGrUrUrCdAdT | 72.7%
4 | sense rGrArArGrArArUrArUrCrCrArArArUrArArArCdTdT / antisense rGrUrUrUrArUrUrUrGrGrArUrArUrUrCrUrUrCdAdG | 77.7%
5 | sense rGrArArGrGrGrArCrArCrCrUrUrUrUrGrArArGdTdT / antisense rCrUrUrCrArArArArGrGrUrGrUrCrCrCrUrUrCdTdG | 79.8%
6 | sense rGrArArUrArUrGrArGrArArArArGrArGrUrUrUdTdT / antisense rArArArCrUrCrUrUrUrUrCrUrCrArUrArUrUrCdTdC | 78.7%
7 | sense rGrArArUrCrGrArUrGrGrArGrUrCrCrArArCrAdTdT / antisense rUrGrUrUrGrGrArCrUrCrCrArUrCrGrArUrUrCdTdG | 84.1%
8 | sense rGrArGrArArArArGrArGrUrUrUrCrGrGrCrCrAdTdT / antisense rUrGrGrCrCrGrArArArCrUrCrUrUrUrUrCrUrCdAdT | 82.7%
9 | sense rGrArGrArArUrArUrGrArGrArArArArGrArGrUdTdT / antisense rArCrUrCrUrUrUrUrCrUrCrArUrArUrUrCrUrCdGdT | 83.6%
10 | sense rGrArUrGrUrArUrCrUrUrCrUrArUrCrUrUrArAdTdT / antisense rUrUrArArGrArUrArGrArArGrArUrArCrArUrCdAdT | 84.7%
11 | sense rGrCrArCrArGrCrUrUrUrArUrCrArGrGrArArAdTdT / antisense rUrUrUrCrCrUrGrArUrArArArGrCrUrGrUrGrCdTdG | 83.8%
12 | sense rGrCrArCrCrArUrCrUrGrArArArArCrArArCrAdTdT / antisense rUrGrUrUrGrUrUrUrUrCrArGrArUrGrGrUrGrCdGdC | 74.2%
13 | sense rGrCrGrCrArCrCrArUrCrUrGrArArArArCrArAdTdT / antisense rUrUrGrUrUrUrUrCrArGrArUrGrGrUrGrCrGrCdCdA | 72.8%
14 | sense rGrCrUrGrGrArUrGrArArCrCrGrArArUrCrCrUdTdT / antisense rArGrGrArUrUrCrGrGrUrUrCrArUrCrCrArGrCdAdG | 81.5%
15 | sense rGrCrUrUrUrArUrCrArGrGrArArArArCrArArAdTdT / antisense rUrUrUrGrUrUrUrUrCrCrUrGrArUrArArArGrCdTdG | 80.4%
16 | sense rGrUrArCrUrUrUrUrArArArCrUrArGrUrArArUdTdT / antisense rArUrUrArCrUrArGrUrUrUrArArArArGrUrArCdCdA | 86.2%
17 | sense rGrUrArUrGrCrUrGrArUrGrGrUrArGrCrArUrAdTdT / antisense rUrArUrGrCrUrArCrCrArUrCrArGrCrArUrArCdAdC | 75.7%
18 | sense rGrUrGrGrArArUrGrCrArGrUrUrArUrArUrUrUdTdT / antisense rArArArUrArUrArArCrUrGrCrArUrUrCrCrArCdTdG | 84.6%

Row | Substance | normalised inhibition (eCFP-eYFP dual reporter)
19 | sense rGrUrUrUrCrGrGrCrCrArUrUrGrUrUrGrArArCdTdT / antisense rGrUrUrCrArArCrArArUrGrGrCrCrGrArArArCdTdC | 61.6%
20 | sense rUrArGrArUrArUrCrCrUrUrCrArGrArArUrCrGdTdT / antisense rCrGrArUrUrCrUrGrArArGrGrArUrArUrCrUrAdAdA | 47.9%
21 | sense rUrArGrUrArArUrArGrArArUrUrUrUrCrUrGrAdTdT / antisense rUrCrArGrArArArArUrUrCrUrArUrUrArCrUrAdGdT | 72.3%
22 | sense rUrArUrCrCrArArArArUrGrUrUrUrCrArUrCrCdTdT / antisense rGrGrArUrGrArArArCrArUrUrUrUrGrGrArUrAdAdA | 48.2%
23 | sense rUrArUrCrUrUrArArCrArUrCrArArUrUrCrArGdTdT / antisense rCrUrGrArArUrUrGrArUrGrUrUrArArGrArUrAdGdA | 50.5%
24 | sense rUrArUrGrUrUrUrArGrArUrArUrCrCrUrUrCrAdTdT / antisense rUrGrArArGrGrArUrArUrCrUrArArArCrArUrAdTdG | 63.5%
25 | sense rUrCrArGrUrCrUrCrUrGrCrUrGrGrArUrGrArAdTdT / antisense rUrUrCrArUrCrCrArGrCrArGrArGrArCrUrGrAdAdT | 62.4%
26 | sense rUrCrCrArArArUrArArArCrCrArCrCrArArCrUdTdT / antisense rArGrUrUrGrGrUrGrGrUrUrUrArUrUrUrGrGrAdTdA | 61.8%
27 | sense rUrCrCrUrUrCrArGrArArUrCrGrArUrGrGrArGdTdT / antisense rCrUrCrCrArUrCrGrArUrUrCrUrGrArArGrGrAdTdA | 50%
28 | sense rUrCrUrGrArArArArCrArArCrArUrCrArUrGrCdTdT / antisense rGrCrArUrGrArUrGrUrUrGrUrUrUrUrCrArGrAdTdG | 48.3%
29 | sense rUrGrCrArGrUrUrArUrArUrUrUrGrGrArCrCrAdTdT / antisense rUrGrGrUrCrCrArArArUrArUrArArCrUrGrCrAdTdT | 81.7%
30 | sense rUrGrGrArUrGrArArCrCrGrArArUrCrCrUrArAdTdT / antisense rUrUrArGrGrArUrUrCrGrGrUrUrCrArUrCrCrAdGdC | 74.3%
31 | sense rUrUrArArArCrUrArGrUrArArUrArGrArArUrUdTdT / antisense rArArUrUrCrUrArUrUrArCrUrArGrUrUrUrArAdAdA | 46.7%
32 | sense rUrUrCrArUrCrCrArArArUrGrUrGrUrArUrGrCdTdT / antisense rGrCrArUrArCrArCrArUrUrUrGrGrArUrGrArAdAdC | 46%
33 | sense rUrUrUrCrArArGrCrGrGrUrUrArCrArArGrArGdTdT / antisense rCrUrCrUrUrGrUrArArCrCrGrCrUrUrGrArArAdTdC | 45.5%
34 | sense rUrUrUrCrUrGrArArGrArArUrArUrCrCrArArAdTdT / antisense rUrUrUrGrGrArUrArUrUrCrUrUrCrArGrArArAdAdT | 82.5%
35 | sense rUrUrUrUrCrUrGrArArGrArArUrArUrCrCrArAdTdT / antisense rUrUrGrGrArUrArUrUrCrUrUrCrArGrArArArAdTdT | 85.3%

Each substance was assayed against UBE2S (assay: reporter assay of Huesken 2005). Settings: siRNA.

Row | Substance | normalised inhibition (eCFP-eYFP dual reporter)
36 | sense rArArCrUrArCrGrArGrGrArGrUrArUrGrCrArGdTdT / antisense rCrUrGrCrArUrArCrUrCrCrUrCrGrUrArGrUrUdCdT | 40%
37 | sense rArArGrArUrCrUrUrCrCrArCrCrCrGrArArCrGdTdT / antisense rCrGrUrUrCrGrGrGrUrGrGrArArGrArUrCrUrUdGdG | 60.4%
38 | sense rArArGrGrUrCrUrUrUrCrCrCrArArCrGrArGrGdTdT / antisense rCrCrUrCrGrUrUrGrGrGrArArArGrArCrCrUrUdGdA | 53%
39 | sense rArCrArCrGrUrArCrUrGrCrUrGrArCrCrArUrCdTdT / antisense rGrArUrGrGrUrCrArGrCrArGrUrArCrGrUrGrUdCdG | 59.3%
40 | sense rArCrCrCrCrArUrArUrGrCrUrGrGrArGrGrUrCdTdT / antisense rGrArCrCrUrCrCrArGrCrArUrArUrGrGrGrGrUdCdC | 49.9%
41 | sense rArCrCrCrGrArUrGrGrCrArUrCrArArGrGrUrCdTdT / antisense rGrArCrCrUrUrGrArUrGrCrCrArUrCrGrGrGrUdGdG | 66.4%
42 | sense rArCrGrArGrGrArGrGrCrGrGrGrCrCrGrCrCrUdTdT / antisense rArGrGrCrGrGrCrCrCrGrCrCrUrCrCrUrCrGrUdTdG | 44.3%
43 | sense rArCrGrGrCrUrGrArGrCrUrGrGrGrCrArUrCrCdTdT / antisense rGrGrArUrGrCrCrCrArGrCrUrCrArGrCrCrGrUdCdC | 52.3%
44 | sense rArCrUrGrArCrCrGrCrArGrArCrCrCrArCrCrCdTdT / antisense rGrGrGrUrGrGrGrUrCrUrGrCrGrGrUrCrArGrUdGdT | 43.6%
45 | sense rArGrCrCrGrGrUrCrGrGrGrCrCrCrUrGrGrCrCdTdT / antisense rGrGrCrCrArGrGrGrCrCrCrGrArCrCrGrGrCrUdTdC | 43%
46 | sense rArGrCrUrUrCrCrUrCrCrArCrCrGrArCrCrCrUdTdT / antisense rArGrGrGrUrCrGrGrUrGrGrArGrGrArArGrCrUdTdC | 49.4%
47 | sense rArGrGrArCrUrUrCrCrCrUrGrCrCrUrCrCrCrCdTdT / antisense rGrGrGrGrArGrGrCrArGrGrGrArArGrUrCrCrUdTdC | 55.2%
48 | sense rArGrGrGrCrCrGrArArGrCrCrGrGrUrCrGrGrGdTdT / antisense rCrCrCrGrArCrCrGrGrCrUrUrCrGrGrCrCrCrUdGdC | 49.1%
49 | sense rArGrGrGrGrArCrCrCrCrArUrArUrGrCrUrGrGdTdT / antisense rCrCrArGrCrArUrArUrGrGrGrGrUrCrCrCrCrUdCdA | 36.5%
50 | sense rArGrUrArUrGrCrArGrCrUrCrGrGrGrCrCrCrGdTdT / antisense rCrGrGrGrCrCrCrGrArGrCrUrGrCrArUrArCrUdCdC | 49.8%
51 | sense rArGrUrGrCrCrUrGrCrUrGrArUrCrCrArCrCrCdTdT / antisense rGrGrGrUrGrGrArUrCrArGrCrArGrGrCrArCrUdTdG | 55.7%
52 | sense rArUrCrUrUrCrCrArCrCrCrGrArArCrGrUrGrGdTdT / antisense rCrCrArCrGrUrUrCrGrGrGrUrGrGrArArGrArUdCdT | 31.6%
